# Legend:
# [1] = molecular target: T1, pyruvate kinase (PK) activity in rat retina (Rattus norvegicus, UniProt P11980); assay: PK activity in rat retina after intravitreal injection; type: in vivo; conditions: increasing concentrations, intravitreal injection in rats, retina 4 h
# T1 construct: the retina from each rat eye was dissected from the RPE-choroid, homogenized, and lysed; from tissue; host or cells: retina of adult Brown-Norway rats
# Experimental: The intravitreal injection of medications has revolutionized how numerous retinal diseases are treated and are ever-increasing in ophthalmic clinical practice. Therefore, to assess the ability of these small molecules to activate PK in vivo in the rat retina, we utilized this well-accepted drug delivery method. Two microliters of each respective compound at 850 μM or DMSO were intravitreally injected into rat eyes. The vitreous volume of the rat eye was assumed to be 15 μL, giving a final intravitreal concentration of approximately 100 μM for each compound after injection. Retinas were harvested four hours after injection, lysed, and assayed for PK activity as previously described. The eyes treated with DMSO served as the control upon which PK activation was based.
# Two microliters of each respective compound at 8.5 μM (final vitreous concentration of 1 μM) or DMSO was intravitreally injected into rat eyes, and the PK activity was assessed four hours later.
# Animals. Intravitreal injections of various small-molecule PKM2 activators or vehicle (DMSO) were performed in Brown-Norway adult rats. The rats were anesthetized with ketamine (90 mg/mL) and xylazine (10 mg/mL) and their pupils dilated with topical phenylephrine (2.5%) and tropicamide (1%) as described previously. A sclerotomy was created with a 25-gauge microvitreoretinal blade (Walcott Rx Products, Ocean View, NJ, USA) just posterior to the limbus. A blunt 35-gauge cannula was inserted through this sclerotomy into the vitreous cavity to deliver 2 μL of different concentrations of small-molecule activator or DMSO. This injection volume produces minimal reflux with adequate reproducibility. Fifteen microliters of vitreous volume was assumed in rats to calculate the intravitreal concentrations of the compound after injection. As we have previously described, left eyes were treated with small-molecular activator, while right eyes were treated with DMSO, which served as the control upon which pyruvate kinase activation was based. Four hours later, the retina from each rat eye was dissected from the RPE-choroid, homogenized, and lysed in RIPA Lysis and Extraction Buffer with protease inhibitors. The pyruvate kinase (PK) activity assay, as described above, was performed using 4 to 8 microliters of rat retinal lysate, similar to what we and others have previously described. Analogous to the cell culture assays, the total protein of the lysate was used to normalize pyruvate kinase activity.
# [2] = tested on: caspase 8 activation in 661W cells; assay: Caspase 8 activity assay in 661W cells (Caspase-Glo 8); type: cell-based
# Experimental: To be confident the pyridazinoindolone core could be utilized in future medicinal chemistry efforts, its photoreceptor neuroprotective effect was assessed. […] Fas signaling has a critical role in caspase activation and photoreceptor apoptosis after experimental retinal detachment. 661W cells die via caspase-mediated mechanisms, and the Fas-ligand (FasL) treatment of these cells leads to the activation of caspases and subsequent death, analogous to the in vivo experimental retinal detachment model. Furthermore, similar to photoreceptors, 661W cells express PKM2 (Figure 4a), and these cells have been used to garner information on the role of metabolism in photoreceptor degeneration. As such, this is a suitable in vitro model of photoreceptor stress that can be utilized to assess the consequences of reprogramming metabolism by pharmacologically activating PKM2 [9]. 661W cells were treated with FasL and either compound 2 or vehicle (DMSO).
# Caspase 8 and caspase 3/7 activity was measured using luminescent assay kits (Caspase-Glo 8 and 3/7 Assay Systems, Promega, Madison, WI, USA, Cat Nos. G8200 and G8090, respectively). […] As previously published, caspase activity was measured 8 h after treatment by incubating cells with substrate for 1 h as per the manufacturer’s instructions. A plate reader luminometer (BMG Labtech, Inc., Cary, NC, USA) assessed luminescence.
# T1 sequence (P11980 1-531 isoform P11980-2): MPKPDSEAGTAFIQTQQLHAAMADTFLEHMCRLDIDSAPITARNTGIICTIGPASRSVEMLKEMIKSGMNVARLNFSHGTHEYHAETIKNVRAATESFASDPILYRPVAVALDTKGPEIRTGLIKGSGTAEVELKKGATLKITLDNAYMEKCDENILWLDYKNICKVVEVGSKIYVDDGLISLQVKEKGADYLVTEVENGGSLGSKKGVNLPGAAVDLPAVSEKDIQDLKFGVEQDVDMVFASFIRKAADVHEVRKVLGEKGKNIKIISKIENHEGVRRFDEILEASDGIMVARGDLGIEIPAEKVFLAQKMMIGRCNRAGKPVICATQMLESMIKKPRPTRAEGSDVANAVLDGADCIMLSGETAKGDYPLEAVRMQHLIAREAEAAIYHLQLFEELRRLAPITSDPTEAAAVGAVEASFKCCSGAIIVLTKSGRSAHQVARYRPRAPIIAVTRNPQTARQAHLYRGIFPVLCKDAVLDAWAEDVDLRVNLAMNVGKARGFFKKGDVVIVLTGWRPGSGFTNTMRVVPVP
compound,measurement,setting,value
Cn1c2cc([S+](C)[O-])ccc2c2cnn(Cc3cccc(N)c3)c(=O)c21 (stereo not shown) [Compound 2],AC50,[1]; read-out: in vivo AC50,299 ± 42 nM
same,Emax,"[1]; rat, normalized to DMSO, read-out: in vivo PK activity (maximum activation)",183 ± 4%
same,caspase 8 activation,"[2]; in presence of 500 ng/mL FasL, all concentrations tested, 8 h, versus DMSO",significantly decreased
same,"caspase 8 activity, compound alone","[2]; no FasL, concentration near AC50 or more than 10-fold greater",no significant effect

# From publication PMC10222839, “Development of Novel Small-Molecule Activators of Pyruvate Kinase Muscle Isozyme 2, PKM2, to Reduce Photoreceptor Apoptosis” (Pharmaceuticals, 2023)
